The text below walks through data of patent publication US8124766B2, “Inhibitors of diacylglycerol acyltransferase” (Madrigal Pharmaceuticals, Inc., priority 2008, dated 2012).

Molecules are shown by their SMILES. Counter-ions that a name gives are not always drawn.

The assay deals with DGAT. As to the kind of experiment: DGAT Phospholipid FlashPlate Assay. It counts as biochemical. The following applies: DGAT pellet, DAG-coated PL-FlashPlate, 14C-Pal-CoA, 37° C. for 1 hour; read-out: DGAT Inhibition Activity IC50. On the procedure:
DGAT Phospholipid FlashPlate Assay
Materials for the assay were: PL-FlashPlate: Phospholipid FlashPlates from PerkinElmer, catalog number SMP108; DAG (1,2-Dioleoyl-sn-glycerol) 10 mM suspended in water containing 0.1% Triton X-100; ^14C-Pal-CoA (palmitoyl coenzyme A, [palmitoyl-1-^14C]) from PerkinElmer, catalog number NEC-555 with a specific activity of 55 mCi/mmol; and DGAT pellet, with a protein concentration of 9.85 mg/ml.
Aqueous buffers were prepared or purchased as follows: The coating buffer (CB) was purchased from PerkinElmer, catalog number SMP900A; the reaction buffer (RB) was 50 mM Tris-HCl, pH 7.5, 100 mM NaCl, 0.01% BSA in water; the washing buffer (WB) is 50 mM Tris-HCl, pH 7.5, 100 mM NaCl, 0.05% deoxycholic acid sodium salt in water; the dilution buffer (DB) was 50 mM Tris-HCl, pH 7.5, 100 mM NaCl, 1 mM EDTA, 0.2% Triton X-100 in water.
1,2-Dioleoyl-sn-glycerol (DAG, 10 mmoles) was diluted to 500 μM with coating buffer (CB). The diluted DAG solution was then added to 384-well PL-FlashPlates at 60 μl per well, and incubated at room temperature for 2 days. The coated plates were then washed twice with washing buffer (WB) before use. Test compounds were serial diluted to 2000, 666.7, 222.2, 74.1, 24.7, 8.2, 2.7 and 0.9 μM in 100% DMSO. Diluted compound were further diluted 10 fold with reaction buffer (RB). ^14C-Pal-CoA was diluted to 8.3 μM with RB. The DGAT pellet was diluted to 0.13 mg protein/ml with dilution buffer (DB) immediately before it was added to the PL-FlashPlates to start the reaction. 20 μl of the RB-diluted compounds (or 10% DMSO in RB for Total and Blank), 15 μl of RB diluted 14C-Pal-CoA and 15 μl of DB diluted DGAT pellet (DB without DGAT for Blanks) were transferred to each well of the PL-FlashPlates. The reaction mixtures were incubated at 37° C. for 1 hour. The reactions were stopped by washing 3 times with WB. Plates were sealed with Top-seal and read on a Topcount instrument.
Calculation of IC50: The IC50 values for each compound were generated using an Excel template. The Topcount rpm readings of Total and Blank were used as 0% and 100% inhibition. The percent inhibition values of reactions in the presence of compounds were calculated, and plotted against compound concentrations. All data were fitted into a Dose Response One Site model (4 parameter logistic model) as the following: (A+((B−A)/(1+((x/C)^D)))), with A and B as the bottom and top of the curve (highest and lowest inhibition), respectively, and C as IC50 and D as Hill Coefficient of the compound.
For the compound `CCOC(=O)N1CC[C@H](Nc2ccc(NC(=O)c3cc4cc(OC)ccc4n3CC)cn2)C1` [Example 51, (S)-3-{5-[(1-Ethyl-5-methoxy-1H-indole-2-carbonyl)-amino]-pyridin-2-ylamino}-pyrrolidine-1-carboxylic acid ethyl ester hydrochloride], the IC50 amounted to 343 nM. To `CCOC(=O)N1CC[C@H](Nc2ccc(NC(=O)c3cc4c(OC)cc(OC)cc4n3CC)cn2)C1` [Example 52, (S)-3-{5-[(1-Ethyl-4,6-dimethoxy-1H-indole-2-carbonyl)-amino]-pyridin-2-ylamino}pyrrolidine-1-carboxylic acid ethyl ester] belongs 229 nM; to `CCOC(=O)N1CC[C@H](Nc2ccc(NC(=O)c3cc4c(C)cccc4n3CC)cn2)C1` [Example 53, (S)-3-{5-[(1-Ethyl-4-methyl-1H-indole-2-carbonyl)-amino]-pyridin-2-ylamino}-pyrrolidine-1-carboxylic acid ethyl ester hydrochloride], 209 nM. To `CCOC(=O)N1CC[C@H](Nc2ccc(NC(=O)c3cc4c(OC)c(OC)ccc4n3CC)cn2)C1` [Example 54, (S)-3-{5-[(1-Ethyl-4,5-dimethoxy-1H-indole-2-carbonyl)-amino]-pyridin-2-ylamino}pyrrolidine-1-carboxylic acid ethyl ester hydrochloride] belongs 309 nM; to `CCOC(=O)N1CC[C@H](Nc2ccc(NC(=O)c3cc4c(OCC)cccc4n3CC)cn2)C1` [Example 55, (S)-3-{5-[(4-Ethoxy-1-ethyl-1H-indole-2-carbonyl)-amino]-pyridin-2-ylamino}-pyrrolidine-1-carboxylic acid ethyl ester hydrochloride], 414 nM; to `CCOC(=O)N1CC[C@H](Nc2ccc(NC(=O)c3cc4cc(Cl)ccc4n3CC)cn2)C1` [Example 56, (S)-3-{5-[(5-Chloro-1-ethyl-1H-indole-2-carbonyl)-amino]-pyridin-2-ylamino}-pyrrolidine-1-carboxylic acid ethyl ester], 671 nM.

With `CCOC(=O)N1CC[C@H](Nc2ccc(NC(=O)c3cc4c(Cl)c(Cl)ccc4n3CC)cn2)C1` [Example 57, (S)-3-{5-[(4,5-Dichloro-1-ethyl-1H-indole-2-carbonyl)-amino]-pyridin-2-ylamino}-pyrrolidine-1-carboxylic acid ethyl ester hydrochloride], the IC50 worked out at 548 nM. As to `CCn1c(C(=O)Nc2ccc(N[C@H]3CCN(C(=O)NC(C)(C)C)C3)nc2)cc2c(C)cccc21` [Example 58, 1-Ethyl-4-methyl-1H-indole-2-carboxylic acid [6-((8)-1-tert-butylcarbamoyl-pyrrolidin-3-ylamino)-pyridin-3-yl]-amide hydrochloride], the IC50 was 247 nM. The result for `CCn1c(C(=O)Nc2ccc(N3CCN(C(=O)OC(C)(C)C)CC3)cc2)cc2c(Cl)c(Cl)ccc21` [Example 59, 4-{4-[(4,5-Dichloro-1-ethyl-1H-indole-2-carbonyl)-amino]-phenyl}-piperazine-1-carboxylic acid tert-butyl ester] reads 821 nM. Take `CCn1c(C(=O)Nc2ccc(N3CCN(C(=O)CC(C)(C)C(=O)O)CC3)cc2)cc2c(Cl)c(Cl)ccc21` [Example 60, 4-(4-{4-[(4,5-Dichloro-1-ethyl-1H-indole-2-carbonyl)-amino]-phenyl}-piperazin-1-yl)-2,2-dimethyl-4-oxo-butyric acid]: the IC50 is 210 nM. Turning to `CCn1c(C(=O)Nc2ccc(C3CCN(C(=O)CC(C(=O)O)c4ccccc4)CC3)cc2)cc2c(Cl)c(Cl)ccc21` (stereo not shown) [Example 61, 4-(4-{4-[(4,5-Dichloro-1-ethyl-1H-indole-2-carbonyl)-amino]-phenyl}-piperidin-1-yl)-4-oxo-2-phenyl-butyric acid], the IC50 amounted to 790 nM. The result for `CCn1c(C(=O)Nc2ccc(C3CCN(C(=O)CC4(C(=O)O)CCCC4)CC3)cc2)cc2c(Cl)c(Cl)ccc21` [Example 62, 1-[2-(4-{4-[(4,5-Dichloro-1-ethyl-1H-indole-2-carbonyl)-amino]-phenyl}-piperidin-1-yl)-2-oxo-ethyl]-cyclopentanecarboxylic acid] reads 240 nM; that for `CCn1c(C(=O)Nc2ccc(N3CCN(C(=O)CC(C(=O)O)C4CCCCC4)CC3)cc2)cc2c(Cl)c(Cl)ccc21` (stereo not shown) [Example 63, 2-Cyclohexyl-4-(4-{4-[(4,5-dichloro-1-ethyl-1H-indole-2-carbonyl)-amino]-phenyl}-piperazin-1-yl)-4-oxo-butyric acid hydrochloride], 351 nM. As for `CCn1c(C(=O)Nc2ccc(N3CCN(C(=O)CC(C(=O)O)C(C)C)CC3)cc2)cc2c(Cl)c(Cl)ccc21` (stereo not shown) [Example 64, 2-[2-(4-{4-[(4,5-Dichloro-1-ethyl-1H-indole-2-carbonyl)-amino]-phenyl}-piperazin-1-yl)-2-oxo-ethyl]-3-methyl-butyric acid], the IC50 was found to be 164 nM. In the case of `CCOc1cccc2c1cc(C(=O)Nc1ccc(O[C@H]3CCN(C(=O)OC(C)(C)C)C3)cc1)n2CC` [Example 65, (S)-3-{4-[(4-Ethoxy-1-ethyl-1H-indole-2-carbonyl)-amino]-phenoxy}-pyrrolidine-1-carboxylic acid tert-butyl ester], the IC50 was found to be 701 nM. In the case of `CCOc1cccc2c1cc(C(=O)Nc1ccc(O[C@H]3CCN(C(=O)CC(C)(C)C(=O)O)C3)cc1)n2CC` [Example 66, 4-((S)-3-{4-[(4-Ethoxy-1-ethyl-1H-indole-2-carbonyl)-amino]-phenoxy}-pyrrolidin-1-yl)-2,2-dimethyl-4-oxo-butyric acid], the IC50 was 208 nM.

For `CCOc1cccc2c1cc(C(=O)Nc1ccc(O[C@H]3CCN(c4ccc(C(=O)O)cc4)C3)cc1)n2CC` [Example 67], the IC50 was found to be 296 nM. Regarding `CCOc1cccc2c1cc(C(=O)Nc1ccc(N3CCN(C(=O)CC4SC(=O)NC4=O)CC3)cc1)n2CC` (stereo not shown) [Example 68, 4-Ethoxy-1-ethyl-1H-indole-2-carboxylic acid (4-{4-[2-(2,4-dioxo-thiazolidin-5-yl)-acetyl]-piperazin-1-yl}-phenyl)-amide hydrochloride], the IC50 was 289 nM. The result for `CCn1c(C(=O)Nc2ccc(N3CCN(C(=O)CC4SC(=O)NC4=O)CC3)cc2)cc2c(Cl)c(Cl)ccc21` (stereo not shown) [Example 69, 4,5-Dichloro-1-ethyl-1H-indole-2-carboxylic acid (4-{4-[2-(2,4-dioxo-thiazolidin-5-yl)-acetyl]-piperazin-1-yl}-phenyl)-amide] reads 236 nM. For the compound `CCn1c(C(=O)Nc2ccc(N3CCN(c4ccc(C(=O)O)cc4)CC3)cc2)cc2c(Cl)c(Cl)ccc21` [Example 70, 4-(4-{4-[(4,5-Dichloro-1-ethyl-1H-indole-2-carbonyl)-amino]-phenyl}-piperazin-1-yl)-benzoic acid], the half-inhibitory concentration (IC50) came out at 319 nM.

Regarding `COc1cccc2c(C)c(C(=O)Nc3ccc(N4CCN(C(=O)OC(C)(C)C)CC4)cc3)[nH]c12` [Example 71, 4-{4-[(7-Methoxy-3-methyl-1H-indole-2-carbonyl)-amino]-phenyl}-piperazine-1-carboxylic acid tert-butyl ester], the concentration for half-maximal inhibition (IC50) was determined as 188 nM. As to `COCCN(C)c1ccc(NC(=O)c2[nH]c3c(OC)cccc3c2C)cn1` [Example 72, 7-Methoxy-3-methyl-1H-indole-2-carboxylic acid {6-[(2-methoxy-ethyl)-methyl-amino]pyridin-3-yl}-amide], the IC50 came out at 117 nM. To `CCOC(=O)N1CCC(Oc2ccc(NC(=O)c3[nH]c4c(OC)cccc4c3C)cc2)C1` (stereo not shown) [Example 73, 3-{4-[(7-Methoxy-3-methyl-1H-indole-2-carbonyl)-amino]-phenoxy}-pyrrolidine-1-carboxylic acid ethyl ester] belongs 90 nM. For the compound `COc1cccc2c(C)c(C(=O)Nc3ccc(N4CCN(C(=O)CC(C)(C)C(=O)O)CC4)cc3)[nH]c12` [Example 74, 4-(4-{4-[(7-Methoxy-3-methyl-1H-indole-2-carbonyl)-amino]-phenyl}-piperazin-1-yl)-2,2-dimethyl-4-oxo-butyric acid], the IC50 is 64 nM. To `COc1cccc2c(C)c(C(=O)Nc3ccc(N4CCN(C(=O)[C@H]5CCC[C@@H]5C(=O)O)CC4)cc3)[nH]c12` [Example 75, (1S,2S)-2-(4-{4-[(7-Methoxy-3-methyl-1H-indole-2-carbonyl)-amino]-phenyl}-piperazine-1-carbonyl)-cyclopentanecarboxylic acid] belongs 372 nM.
